Tests used:
[1] = tested on: KCC2 expression (KCC2-2A-luciferase reporter); assay: KCC2-2A-luciferase reporter compound screening with RTT KCC2 reporter neurons; type: cell-based, human; conditions: for B Score: MECP2-null RTT human KCC2 reporter neurons, LINCS, SMART, ICCB libraries, Luc/CTG normalized to in-plate DMSO, hit = B score >3
Procedure: The RTT KCC2-2A-luciferase reporter neurons were treated with the test compounds from the LINCS kinase inhibitor library and IRSF SMART compound library and incubated before being lysed. The cell lysate was divided into two parts to measure luciferase signal (KCC2 translation) and Cell-Titer Glow (CTG, amount of ATP). The luciferase signal was normalized to CTG for each well, and the Luc/CTG ratio was normalized to the in-plate DMSO negative control to calculate fold change ratio.
Additional screens for reporter activation in the MECP2-null RTT human KCC2 reporter neurons (isogenic to the WT reporter cells used above) were performed with the LINCS and SMART libraries as well as the ICCB known bioactive library and identified hits as compounds with B score >3.
The cells were dissociated with Accutase and resuspended in 10 ml neuronal differentiation medium to count cells. The cells were then diluted to the final density of 200,000 to 500,000 cells/ml. Matrigel was added to the cell suspension at a dilution ratio of 1:300 to promote cell adhesion after plating. AraC was added to cell suspension at the concentration of 2 μM to inhibit cell division. The cells were plated into 96-well plates with an automated cell seeding machine using the following protocol: The neuron flask was washed with PBS. The neurons were digested off the plate with Accutase for 30 minutes at 37° C. Next, the dissociated cells were collected and spun down at 750 rpm for 5 minutes. The cell pellet was dissociated by gentle trituration with P1000 pipet and the cells were resuspended with 10 ml of neuronal medium. Then, the cells were filtered through a 40 μm cell strainer (Falcon) to get rid of clumps. The resulting single-cell suspension was counted using a Countess automated cell counter (Invitrogen Countess Automated Cell Counter, Catalog no. C10227). The neurons were resuspended with neuronal medium to 10× of the destination density (100,000 cells to 400,000 cells per ml). The cells were plated with a multichannel pipette, or proceeded to the machine-plating protocol described below:
The day after cell seeding, small molecule compounds from the IRSF (International Rett Syndrome Foundation) library were prepared at a concentration of 1 mM and dispensed into a blank V-bottomed test plates at 2 μl per well. Compound solvent DMSO was included in every plate as control. Using a liquid handling robot, about 80 μl of culture medium were discarded. Neuronal medium in the volume of 200 μl was added to the V-bottom test plate that contained 2 μl of 1 mM compounds, and mixed with compounds by pipetting up-and-down 3 times. The medium that contained the 10 μM compounds was then applied to the neuronal cell culture and incubated for 2 weeks before cell lysis and luciferase assay were performed.
The cells were dissociated with Accutase, resuspended in 10 ml neuronal differentiation medium to count cells. the final cell seeding density was 20 k-40 k cells per well for 96-well plates, and ˜10 k cells per well for 384-well plates. Matrigel was added to the cell suspension at a dilution ratio of 1:300 to promote cell adhesion after plating. AraC were added to the cell suspension at the concentration of 0.5 μM to inhibit astroglial cell division. The cells were dispensed into 96-well or 384-well plates (Coming) using a BioTek EL406 plate dispenser. […] The neurons were incubated with the compounds at 37° C./5% CO2 for a week before the luciferase assay.
The cells used for luciferase assay were KCC2 reporter neurons differentiated for 4 weeks, and treated with drug in 96-well format for 2 weeks. Cell density was between 20 k-40 k cells per well.
On the day of the luciferase assay, the cells were washed with PBS for two times, and 100 μl of cell lysis buffer was applied to the washed cells. The cell plates were transferred to a rocker to shake for 10 minutes in order to fully lyse the cells.

[2] = tested on: KCC2 expression; assay: Western blot of KCC2 in cultured human RTT neurons; type: cell-based
Procedure: Protein samples were collected from cultured brain slices or cultured neurons in 12-well format with RIPA lysis buffer (in mM: 150 NaCl, 25 Tris-HCl, 1 EDTA, 1% NP-40, 1% sodium deoxycholate, 0.1% SDS, with protein kinase inhibitor and protease inhibitor, pH adjusted to 7.6). A sonication step was applied to homogenize tissue and extract protein, followed by a 10 minute centrifugation at 4° C. […] The PVDF membrane was blocked for 30 minutes with 5% milk in TBS+0.1% Tween 20 (TBST), and incubated overnight at 4° C. with primary antibodies diluted in TBST-milk at the following concentrations: KCC2 (1:2000, Millipore), NKCC1 (1:1000, Iowa Hybridoma bank), α-Tubulin (1:4000, Abcam), GAPDH (1:3000, Abcam), Actin (1:2000, Sigma Aldrich #A2066). The membrane was rinsed with TBST three times to wash off excess antibodies, and then incubated in secondary HRP antibodies in TBST-milk at 1:5000 concentration.
The PVDF membrane was then stripped using the Re-blot plus strong solution (Millipore), and re-immunoblotted for NKCC1 (˜150 kDa) to acquire KCC2/NKCC1 ratio. The area and intensity of protein signal was determined using ImageJ. The relative KCC2 and NKCC1 expression were calculated by normalizing protein signal to GAPDH or Tubulin loading control.

[3] = tested on: REST; assay: Western blot of REST in cultured human RTT neurons; type: cell-based
From the text: Two hit compounds Resveratrol and Piperine act on different pathways than the kinase inhibitors, activating the Sirtuin 1 (SIRT1) (49) and the transient receptor potential cation channel subfamily V member 1 (TRPV1) (50) signaling pathways, respectively.
Protein samples were collected from cultured brain slices or cultured neurons in 12-well format with RIPA lysis buffer (in mM: 150 NaCl, 25 Tris-HCl, 1 EDTA, 1% NP-40, 1% sodium deoxycholate, 0.1% SDS, with protein kinase inhibitor and protease inhibitor, pH adjusted to 7.6). A sonication step was applied to homogenize tissue and extract protein, followed by a 10 minute centrifugation at 4° C. The protein samples were mixed with NuPAGE LDS sample buffer, heated at 95° C. for 10 minutes, and then separated on NuPAGE 4-12% Bis-Tris gel and transferred to PVDF membrane. The PVDF membrane was blocked for 30 minutes with 5% milk in TBS+0.1% Tween 20 (TBST), and incubated overnight at 4° C. with primary antibodies diluted in TBST-milk at the following concentrations: KCC2 (1:2000, Millipore), NKCC1 (1:1000, Iowa Hybridoma bank), α-Tubulin (1:4000, Abcam), GAPDH (1:3000, Abcam), Actin (1:2000, Sigma Aldrich #A2066). The membrane was rinsed with TBST three times to wash off excess antibodies, and then incubated in secondary HRP antibodies in TBST-milk at 1:5000 concentration.

[4] = tested on: NRSF/REST; conditions: glioblastoma cell line; via SIRT1 pathway (49); cited from earlier work
[5] = tested on: KCC2 expression; assay: Western blot of KCC2 in cultured WT human neurons; type: cell-based; conditions: cultured WT human neurons (WIBR1); Western blot
[6] = tested on: KCC2 expression; assay: Western blot of KCC2 in organotypic mouse brain slices; type: cell-based; conditions: organotypic neonatal mouse brain slices, treated 7 days, vs DMSO, MeBIO or medium-only control
[7] = tested on: KCC2 mRNA; assay: Quantitative RT-PCR of KCC2 mRNA in organotypic mouse brain slices; type: cell-based
Procedure: (§1) Brain slices were also treated with the FLT3 inhibitors Crenolanib and XL-184. […] To assess whether increased KCC2 protein levels were due to increased gene transcription or enhanced protein stability, quantitative RT-PCR experiments were performed to measure the KCC2 mRNA level in KEEC-treated brain slices. […] In contrast, the expression of NKCC1, a chloride transporter that antagonizes KCC2 activity by shuttling Cl^− into the cell (44), was decreased by treatment with KEEC compounds (FIG. 8F).
(§2) Brain slice cultures were prepared from P1 neonatal mouse according to a protocol described by Antonio del Rio et al., Nature Protocols, 2010. Cerebrum slices (1 mm in thickness) were prepared from neonatal mouse brain, and were transferred to 6-well culture inserts with the pore size of 0.4 μm. The insert was placed in 6-well plates with 1 ml of culture medium. Three days after the initial culture, compounds and DMSO control were added to the medium. Alternately, in some experiments, brain slice cultures were prepared from P3 neonatal mouse according to a protocol described by Antonio del Rio et al., Nature Protocols, 2010. Cerebrum slices (1 mm in thickness) were prepared from neonatal mouse brain, and were transferred to 6-well culture inserts with the pore size of 0.4 μm. The insert was placed in 6-well plates with 1 ml of culture medium. The day after the initial culture, compounds and DMSO control were added to the medium. The medium with fresh compounds was used to replace old medium every other day. One week after drug treatment, the brain slices were harvested for Western blot or qRT-PCR analysis.
(§3) To prepare RNA samples from cultured organotypic brain slice, tissue samples were homogenized by passing through a 23 gauge needle for a number of times. Total RNA was extracted with Omega Total RNA kit and was reverse-transcribed into cDNA using the Invitrogen Superscript RT system and Oligo dT primer. SYBR green-based quantitative RT-PCR assay was performed to detect for the abundance of specific mRNA transcripts. The primer sequence for the detection of KCC2 expression in mouse brain samples are as follows: KCC2-Forward: […] (SEQ ID NO: 2); KCC2-Reverse: […] (SEQ ID NO: 3). The primer sequence for detection of NKCC1 mRNA are as follows: NKCC1-Forward: […] (SEQ ID NO: 3); NKCC1-Reverse: […] (SEQ ID NO: 4). The gene expression was calculated by normalizing the KCC2 data with the expression of housekeeping gene HDAC2 in every sample. HDAC2 expression was detected using the following primers: HDAC2-Forward: […] (SEQ ID NO: 5); HDAC2-Reverse: […] (SEQ ID NO: 6). Relative gene expression levels were calculated by normalizing KCC2 or NKCC1 expression in drug-treated groups with that in DMSO controls with the housekeeping gene HDAC being used as internal control.

[8] = tested on: NKCC1 mRNA; assay: Quantitative RT-PCR of NKCC1 mRNA in organotypic mouse brain slices; type: cell-based
Procedure: as §1, §2, §3

[9] = tested on: immature mouse neurons; assay: Gramicidin-perforated patch recording of EGABA in DIV6-7 immature mouse neurons; type: cell-based
[10] = co-applied with EX-527 below the threshold for SIRT1 pathway inhibition
[11] = cultured human RTT neurons, Western blot
[12] = in the presence of a high concentration of SIRT1 pathway blocker EX-527, vs DMSO control

| Compound | B Score [1] | KCC2 reporter activity in RTT neurons ([1]; RTT KCC2-2A-luciferase reporter neurons vs in-plate DMSO) | KCC2 expression [2, 10] | concentration at which treatment significantly increases KCC2 expression ([2]; cultured ESC-derived human RTT neurons, Western blot) [µM] | KCC2 expression [2, 11] | KCC2 expression [2, 12] | level of REST [3, 10] | REST expression [3, 12] | expression of NRSF/REST [4] | KCC2 expression [5] | KCC2 protein level [6] | KCC2 mRNA level [7] | NKCC1 mRNA level [8] | EGABA after treatment ([9]; DIV6-7 immature mouse neurons, untreated about −50 mV) | significant hyperpolarizing shift in EGABA ([9]; DIV6 cultured immature mouse neurons) |
| --- | --- | --- | --- | --- | --- | --- | --- | --- | --- | --- | --- | --- | --- | --- | --- |
| Oc1ccc(/C=C/c2cc(O)cc(O)c2)cc1 [Resveratrol, 3,5,4'-trihydroxy-trans-stilbene] | 12.65 | significant increase of KCC2 reporter activity | substantial increase in KCC2 expression | 10 | increase KCC2 expression | neither KCC2 nor REST was changed | reduction in the level of REST | neither KCC2 nor REST was changed | reduces expression of the neuronal gene repressor NRSF/REST | – | – | – | – | – | – |
| COc1cc2nccc(Oc3ccc(NC(=O)C4(C(=O)Nc5ccc(F)cc5)CC4)cc3)c2cc1OC [XL-184, N′-[4-[(6,7-dimethoxy-4-quinolinyl)oxy]phenyl]-N-(4-fluorophenyl)-1,1-cyclopropanedicarboxamide] | 3.25 | – | – | – | significant enhancement of KCC2 expression | – | – | – | – | significant enhancement of KCC2 expression | significantly increased the KCC2 protein level | significantly increased KCC2 expression | significant reduction in NKCC1 mRNA level | about −70 mV | induces significant hyperpolarizing shift in EGABA |

Reference: patent publication US12053465B2, “KCC2 expression enhancing compounds and uses thereof” (Whitehead Institute for Biomedical Research, priority 2017, dated 2024)
